Patent US4394503A, “Cephalosporin derivatives” (priority 1981, dated 1983)
Values after ≈ are worked out from the molar mass of the structure shown. Counter-ions that a name gives are not always drawn. Like-named read-outs stand apart in the source and are kept apart here.

How the values were obtained:
S. aureus Smith [1] = assay: MIC against selected test organisms (Table 2); format: cell-based; conditions: Staphylococcus aureus; Gp-Ia, PC-S; read-out: Minimum Inhibitory Concentration
S. aureus A15092 = assay: MIC against selected test organisms (Table 2); format: cell-based; conditions: Staphylococcus aureus, Gp-Ib, PC-R, read-out: Minimum Inhibitory Concentration
P. acnes A21933 = assay: MIC against selected test organisms (Table 2); format: cell-based; conditions: Cutibacterium acnes, A21933; Anaerobe, CLDM-R; read-out: Minimum Inhibitory Concentration
K. pneumoniae A 9867 = assay: MIC against selected test organisms (Table 2); format: cell-based; conditions: Klebsiella pneumoniae, A9867; Gn-Ib, CET-R; read-out: Minimum Inhibitory Concentration
B. fragilis A22533 = assay: MIC against selected test organisms (Table 2); format: cell-based; conditions: Bacteroides fragilis, A22533; Anaerobe, AMP-R; read-out: Minimum Inhibitory Concentration
E. coli A15148 = assay: MIC against selected test organisms (Table 2); format: cell-based; conditions: Escherichia coli, A15148; Gn-Ib, CET-R; read-out: Minimum Inhibitory Concentration
C. perfringens A9635 = assay: microbe, parasite or virus in culture; format: cell-based; conditions: Clostridium perfringens, A9635, read-out: Minimum Inhibitory Concentration
B. fragilis A21900 = assay: MIC against selected test organisms (Table 2); format: cell-based; conditions: Bacteroides fragilis, A21900; Anaerobe, CET-S; read-out: Minimum Inhibitory Concentration
E. coli Juhl [2] = assay: MIC against selected test organisms (Table 2); format: cell-based; conditions: Escherichia coli; Gn-Ia, CET-S; read-out: Minimum Inhibitory Concentration
K. pneumoniae D11 = assay: MIC against selected test organisms (Table 2); format: cell-based; conditions: Klebsiella pneumoniae, D11; Gn-Ia, CET-S; read-out: Minimum Inhibitory Concentration
S. marcescens A20019 = assay: MIC against selected test organisms (Table 2); format: cell-based; conditions: Serratia marcescens, A20019; Gn-II, CET-R; read-out: Minimum Inhibitory Concentration
B. fragilis A20928-1 = assay: MIC against selected test organisms (Table 2); format: cell-based; conditions: Bacteroides fragilis, A209281; Anaerobe, CET-S; read-out: Minimum Inhibitory Concentration
B. fragilis A22021 = assay: MIC against selected test organisms (Table 2); format: cell-based; conditions: Bacteroides fragilis, A22021; Anaerobe, CET-R; read-out: Minimum Inhibitory Concentration
[3] = system: Cephalothin-sensitive E. coli, Kl. pneumoniae and Pr. mirabilis (Gn-Ia); assay: In vitro antibacterial activity, two-fold agar dilution, Mueller-Hinton agar (Table 1), group Gn-Ia; format: cell-based; conditions: read-out: Geometric Mean of MIC
P. aeruginosa A20717 = assay: MIC against selected test organisms (Table 2); format: cell-based; conditions: Pseudomonas aeruginosa, A20717; Gn-III, CET-R; read-out: Minimum Inhibitory Concentration
B. fragilis A22693 = assay: MIC against selected test organisms (Table 2); format: cell-based; conditions: Bacteroides fragilis, A22693; Anaerobe, CET-R; read-out: Minimum Inhibitory Concentration
E. cloacae A9656 = assay: MIC against selected test organisms (Table 2); format: cell-based; conditions: Enterobacter cloacae, Gn-II, CET-R, read-out: Minimum Inhibitory Concentration
S. aureus A9497 = assay: MIC against selected test organisms (Table 2); format: cell-based; conditions: Staphylococcus aureus, Gp-Ia, PC-S, read-out: Minimum Inhibitory Concentration
Ps. aeruginosa (Gn-III) = assay: In vitro antibacterial activity, two-fold agar dilution, Mueller-Hinton agar (Table 1), group Gn-III; format: cell-based; conditions: Pseudomonas aeruginosa; read-out: Geometric Mean of MIC
E. coli Juhl [4] = assay: Therapeutic efficacy in experimentally infected mice (Table 5); format: in vivo; conditions: Escherichia coli, im, 120 h; i.m., immediately after intraperitoneal challenge, 5 days observation; read-out: PD50 (median protective dose)
Description: (§1) The test compounds were administered intramuscularly immediately after the bacterial challenge.

S. aureus Smith [5] = assay: as above; format: in vivo; conditions: Staphylococcus aureus, im, 120 h; i.m., immediately after intraperitoneal challenge, 5 days observation; read-out: PD50 (median protective dose)
Description: as §1

P. aeruginosa A9843 [6] = assay: as above; format: in vivo; conditions: Pseudomonas aeruginosa, A9843, im, 120 h; i.m., immediately after intraperitoneal challenge, 5 days observation; read-out: PD50 (median protective dose)
Description: as §1

[7] = system: Pr. morganii, Ent. cloacae and Ser. marcescens (Gn-II); assay: In vitro antibacterial activity, two-fold agar dilution, Mueller-Hinton agar (Table 1), group Gn-II; format: cell-based, Pr. morganii (1), Ent. cloacae (2) and Ser. marcescens (2); conditions: read-out: Geometric Mean of MIC
C. difficile A21675 = assay: MIC against selected test organisms (Table 2); format: cell-based; conditions: Clostridioides difficile, A21675; Anaerobe, CLDM-R; read-out: Minimum Inhibitory Concentration
P. morganii A9553 = assay: MIC against selected test organisms (Table 2); format: cell-based; conditions: Morganella morganii, A9553; Gn-II, CET-R; read-out: Minimum Inhibitory Concentration
P. mirabilis A9554 = assay: MIC against selected test organisms (Table 2); format: cell-based; conditions: Proteus mirabilis, A9554; Gn-Ia, CET-S; read-out: Minimum Inhibitory Concentration
P. aeruginosa A15150 = assay: MIC against selected test organisms (Table 2); format: cell-based; conditions: Pseudomonas aeruginosa, A15150; Gn-III, CET-R; read-out: Minimum Inhibitory Concentration
[8] = system: Penicillin-sensitive S. aureus (Gp-Ia); assay: In vitro antibacterial activity, two-fold agar dilution, Mueller-Hinton agar (Table 1), group Gp-Ia; format: cell-based; conditions: Staphylococcus aureus; read-out: Geometric Mean of MIC
S. aureus BX-1633 = assay: MIC against selected test organisms (Table 2); format: cell-based; conditions: Staphylococcus aureus, BX1633; Gp-Ib, PC-R; read-out: Minimum Inhibitory Concentration
B. fragilis A22695 = assay: MIC against selected test organisms (Table 2); format: cell-based; conditions: Bacteroides fragilis, A22695; Anaerobe, AMP-R; read-out: Minimum Inhibitory Concentration
[9] = system: Cephalothin-resistant E. coli and Kl. pneumoniae (Gn-Ib); assay: In vitro antibacterial activity, two-fold agar dilution, Mueller-Hinton agar (Table 1), group Gn-Ib; format: cell-based, E. coli (3) and Kl. pneumoniae (3); conditions: Escherichia coli, read-out: Geometric Mean of MIC
[10] = system: Penicillin-resistant S. aureus (Gp-Ib); assay: In vitro antibacterial activity, two-fold agar dilution, Mueller-Hinton agar (Table 1), group Gp-Ib; format: cell-based; conditions: Staphylococcus aureus; read-out: Geometric Mean of MIC
P. aeruginosa A9843 [11] = assay: MIC against selected test organisms (Table 2); format: cell-based; conditions: Pseudomonas aeruginosa, A9843; Gn-III, CET-R; read-out: Minimum Inhibitory Concentration
[12] = system: Others Group IV (C. difficile, C. perfringens, P. acne and P. anaerobius); assay: microbe, parasite or virus in culture; format: cell-based; conditions: read-out: Geometric Mean of MIC, GAM agar, 1 strain each
B. fragilis Group III = assay: In vitro antianaerobic activity in GAM agar (Table 4); format: cell-based; conditions: read-out: Geometric Mean of MIC
B. fragilis Group II = assay: as above; format: cell-based; conditions: Bacteroides fragilis; read-out: Geometric Mean of MIC
B. fragilis Group I = assay: as above; format: cell-based; conditions: Bacteroides fragilis
[13] = prior-art filing; cited from earlier work

SMILES: CSc1ccc[n+](CC2=C(C(=O)[O-])N3C(=O)C(NC(=O)/C(=N\OC(C)(C)C(=O)O)c4csc(N)n4)C3SC2)c1 (stereo not drawn) [Example 1, 7-[(Z)-2-(2-Aminothiazol-4-yl)-2-(2-carboxyprop-2-oxyimino)acetamido]-3-[(3-methylthiopyridinium)methyl]-3-cephem-4-carboxylate]
- MIC (S. aureus Smith [1]): 6.3 µg/mL (≈ 10.6 µM)
- MIC (S. aureus A15092): 12.5 µg/mL (≈ 21.1 µM)
- MIC (P. acnes A21933): 1.6 µg/mL (≈ 2.7 µM)
- MIC (K. pneumoniae A 9867): 3.1 µg/mL (≈ 5.23 µM)
- MIC (B. fragilis A22533): > 100 µg/mL
- MIC (E. coli A15148): 0.4 µg/mL (≈ 0.675 µM)
- MIC (C. perfringens A9635): 25 µg/mL (≈ 42.2 µM)
- MIC (B. fragilis A21900): 6.3 µg/mL (≈ 10.6 µM)
- MIC (E. coli Juhl [2]): 0.2 µg/mL (≈ 0.337 µM)
- MIC (K. pneumoniae D11): 0.4 µg/mL (≈ 0.675 µM)
- MIC (S. marcescens A20019): 0.2 µg/mL (≈ 0.337 µM)
- MIC (B. fragilis A20928-1): 6.3 µg/mL (≈ 10.6 µM)
- MIC (B. fragilis A22021): 25 µg/mL (≈ 42.2 µM)
- MIC [3]: 0.11 µg/mL (≈ 0.186 µM)
- MIC (P. aeruginosa A20717): 12.5 µg/mL (≈ 21.1 µM)
- MIC (B. fragilis A22693): 25 µg/mL (≈ 42.2 µM)
- MIC (E. cloacae A9656): 0.4 µg/mL (≈ 0.675 µM)
- MIC (S. aureus A9497): 3.1 µg/mL (≈ 5.23 µM)
- MIC (Ps. aeruginosa (Gn-III)): 3.5 µg/mL (≈ 5.91 µM)
- ED50 (E. coli Juhl [4]): 0.46 mg/kg
- ED50 (S. aureus Smith [5]): 6 mg/kg
- ED50 (P. aeruginosa A9843 [6]): 12 mg/kg
- MIC [7]: 2.8 µg/mL (≈ 4.72 µM)
- MIC (C. difficile A21675): > 100 µg/mL
- MIC (P. morganii A9553): 1.6 µg/mL (≈ 2.7 µM)
- MIC (P. mirabilis A9554): 0.1 µg/mL (≈ 0.169 µM)
- MIC (P. aeruginosa A15150): 1.6 µg/mL (≈ 2.7 µM)
- MIC [8]: 4.7 µg/mL (≈ 7.93 µM)
- MIC (S. aureus BX-1633): 12.5 µg/mL (≈ 21.1 µM)
- MIC (B. fragilis A22695): 50 µg/mL (≈ 84.4 µM)
- MIC [9]: 1.1 µg/mL (≈ 1.86 µM)
- MIC [10]: 12.5 µg/mL (≈ 21.1 µM)
- MIC (P. aeruginosa A9843 [11]): 3.1 µg/mL (≈ 5.23 µM)

SMILES: CSc1cccc[n+]1CC1=C(C(=O)[O-])N2C(=O)C(NC(=O)/C(=N\OC(C)(C)C(=O)O)c3csc(N)n3)C2SC1 (stereo not drawn) [Example 3, 7-[(Z)-2-(2-Aminothiazol-4-yl)-2-(2-carboxyprop-2-oxyimino)-acetamido]-3-[(2-methylthiopyridinium)methyl]-3-cephem-4-carboxylate]
- MIC [3]: 0.11 µg/mL (≈ 0.186 µM)
- MIC (Ps. aeruginosa (Gn-III)): 5.6 µg/mL (≈ 9.45 µM)
- MIC [7]: 3.2 µg/mL (≈ 5.4 µM)
- MIC [8]: 9.5 µg/mL (≈ 16 µM)
- MIC [9]: 2 µg/mL (≈ 3.37 µM)
- MIC [10]: 12.5 µg/mL (≈ 21.1 µM)

SMILES: CCSc1cc[n+](CC2=C(C(=O)[O-])N3C(=O)C(NC(=O)/C(=N\OC(C)(C)C(=O)O)c4csc(N)n4)C3SC2)cc1 (stereo not drawn) [Example 4, 7-[(Z)-2-(2-Aminothiazol-4-yl)-2-(2-carboxyprop-2-oxyimino)acetamido]-3-[(4-ethylthiopyridinium)methyl]-3-cephem-4-carboxylate]
- MIC ([12]; Example 4, ceftazidime (mean of 3 experiments)): 8.9 µg/mL (≈ 14.7 µM)
- MIC (B. fragilis Group III): 100 µg/mL (≈ 165 µM)
- MIC (B. fragilis Group II): 12.5 µg/mL (≈ 20.6 µM)
- MIC [3]: 0.087 µg/mL (≈ 0.143 µM)
- MIC (Ps. aeruginosa (Gn-III)): 8.8 µg/mL (≈ 14.5 µM)
- MIC (B. fragilis Group I; read-out: Geometric Mean of MIC, GAM agar, Example 4, ceftazidime (mean of 3 experiments), nonlactamase-producing, ampicillin-sensitive, 3 strains): 2.5 µg/mL (≈ 4.12 µM)
- MIC [7]: 2.1 µg/mL (≈ 3.46 µM)
- MIC [8]: 6.3 µg/mL (≈ 10.4 µM)
- MIC [9]: 1.3 µg/mL (≈ 2.14 µM)
- MIC [10]: 12.5 µg/mL (≈ 20.6 µM)

SMILES: CC(C)Sc1cc[n+](CC2=C(C(=O)[O-])N3C(=O)C(NC(=O)/C(=N\OC(C)(C)C(=O)O)c4csc(N)n4)C3SC2)cc1 (stereo not drawn) [Example 5, 7-[(Z)-2-(2-Aminothiazol-4-yl)-2-(2-carboxyprop-2-oxyimino)-acetamido]-3-[(4-isopropylthiopyridinium)methyl]-3-cephem-4-carboxylate]
- MIC ([12]; Example 5 ceftazidime (mean of 2 experiments)): 3.5 µg/mL (≈ 5.64 µM)
- MIC (B. fragilis Group III): > 100 µg/mL
- MIC (B. fragilis Group II): 25 µg/mL (≈ 40.3 µM)
- MIC [3]: 0.11 µg/mL (≈ 0.177 µM)
- MIC (Ps. aeruginosa (Gn-III)): 12.5 µg/mL (≈ 20.1 µM)
- MIC (B. fragilis Group I; read-out: Geometric Mean of MIC): 3.2 µg/mL (≈ 5.16 µM)
- MIC [7]: 2.4 µg/mL (≈ 3.87 µM)
- MIC [8]: 4.7 µg/mL (≈ 7.57 µM)
- MIC [9]: 1 µg/mL (≈ 1.61 µM)
- MIC [10]: 12.5 µg/mL (≈ 20.1 µM)

SMILES: CC(C)(O/N=C(\C(=O)N[C@@H]1C(=O)N2C(C(=O)[O-])=C(C[n+]3ccccc3)CS[C@H]12)c1csc(N)n1)C(=O)O [bishydrochloride of ceftazidime]
- storage stability [13]: good storage stability
